The numbers were not newly measured in patent publication US20040028613A1, “Dopamine agonist formulations for enhanced central nervous system delivery” (Nastech Pharmaceutical Company Inc, priority 2001, published 2004), which cites them from elsewhere.

In data set [1] the test system is ciliary function in epithelial cell cultures.
The conditions of data set [2]: intraduodenal, rats, with 1% (w/v) saline dispersion of polycarbophil.
For data set [3] the following is noted: subcutaneous injection.
Data set [4] deals with ciliary movement of human adenoid tissue. To be noted: for time in which ciliary movement was inhibited / inhibitory effect on ciliary movement at the end of 60 mm: 0.3%.
The conditions of data set [5]: 2.5 mg to 3.5 mg, hypotension, nausea, vomiting, impaired vision, diaphoresis, ashen coloring.
For data set [6] the following is noted: aqueous solution, physiologic pH.

On to “2-alkyl-4-hydroxyquinolines [pyo compound]”, for which, in data set [1], the “concentration producing ciliostasis / inhibiting ciliary motility” value is 50 µg/mL.

Consider “9-desglycinamide, 8-arginine vasopressin”, for which the “increase of bioavailability compared to aqueous solution without polymer” value in data set [2] was 3-5 fold. On to `CN1CCc2cccc3c2[C@H]1Cc1ccc(O)c(O)c1-3` [SC Inj (ref. 1), apomorphine], for which, in data set [3] (prior art, patients), the “CSF level at 20 min” value is recorded as 1.08 ng/mL and the “Plasma level at 20 min” value was 25.04 ng/mL. `CC(=O)OC1CC2(C)C(CC(O)C3C4(C)CCC(O)C(C)C4CCC32C)C1=C(CCCC(C)C)C(=O)NCCS(=O)(=O)O` (stereo not drawn) [STDHF, sodium taurodihydrofusidate]: the “inhibition of ciliary movement” value in data set [4] (concentration of 0.3%, at 60 minutes) is given as “total”. As to `CN1CCc2cccc3c2[C@H]1Cc1ccc(O)c(O)c1-3` [apomorphine], the “CSF levels of active drug as percentage of levels found in the plasma” value in data set [3] is recorded as “less than 5%”. For the same molecule, in data set [5], the “side effects of intranasal delivery” value is “extensive and serious side effects”.

As for `CC(C)CC(N)B(O)O` (stereo not drawn) [boro-leucine], in the data set on aminopeptidases, the “effectiveness in enzyme inhibition relative to bestatin” value is on record as “more than 100 times” and the “effectiveness in enzyme inhibition relative to puromycin” value is listed as “more than 1000 times”. As for `C[C@H](CCC(=O)O)[C@H]1CC[C@H]2[C@@H]3CC[C@@H]4C[C@H](O)CC[C@]4(C)[C@H]3C[C@H](O)[C@]12C` [deoxycholate, deoxycholic acid], the “time in which ciliary movement was inhibited” value in data set [4] is on record as 20 mm. `CCN(CC)/[N+]([O-])=N/O.CCNCC` [diethylamine/NO]: the “rate (time) of NO release” value in data set [6] was less than 3 min. Take `NCCN(CCN)/[N+]([O-])=N/O` [diethylenetriamine/NO (DETANO)]: in data set [6], the “rate (time) of NO release” value is reported as “approximately 20 hours”. For `C[C@H](CCC(=O)NCC(=O)O)[C@H]1CC[C@H]2[C@@H]3[C@H](O)C[C@@H]4C[C@H](O)CC[C@]4(C)[C@H]3C[C@H](O)[C@]12C` [glycocholate, glycocholic acid], the “inhibitory effect on ciliary movement at the end of 60 mm” value in data set [4] is reported as “no inhibitory effect”. As to `C[C@H](CCC(=O)NCCS(=O)(=O)O)[C@H]1CC[C@H]2[C@@H]3[C@H](O)C[C@@H]4C[C@H](O)CC[C@]4(C)[C@H]3C[C@H](O)[C@]12C` [taurocholate, taurocholic acid], the “inhibitory effect on ciliary movement at the end of 60 mm” value in data set [4] is given as “no inhibitory effect”. For the molecule Laureth-9, the “time in which ciliary movement was inhibited” value in data set [4] was 10 mm.
